Results on two compounds are retold here after patent US20260199555A1, “3D PRINTING OF HIGH CELL DENSITY VASCULARIZED TISSUE” (priority 2022, published 2026).

Series [1] deals with human umbilical vein endothelial cells (HUVEC). The series is described as follows: CCK8 metabolic activity of printed thin slabs, HUVEC in GelMA. The class given is cell-based. As to conditions: 35% vs 0% IDX; 5% GelMA, 2 million/mL HUVEC; 7 days culture; n=6, p>0.1. From the text:
(§1) In order to verify IDX's biocompatibility with various biomaterials and cell types, we performed thin slab bioprinting using three commonly used formulas: human umbilical vein endothelial cells (HUVEC) in GelMA, human Schwann cells (HSC) in glycidyl methacrylate hyaluronic acid (GMHA), and C2C12 in alginate methacrylate (AlgMA). FIGS. 7A and 7B are plots of the refractive indices of these common bioinks at various biopolymer and IDX concentrations, respectively. Since the ideal IDX concentration range varies between 20% and 35%, we chose to compare 3D printed tissues in which 0% or 35% IDX was used. As will be apparent to those of skill in the art, other bioinks may be used including, but not limited to, multi-arm PEG (polyethylene glycol), Gel-NB (Gelatin-norbornene), Gel-SH (Gelatin-thiol), and combinations thereof, including HA-NB, HA-SH, etc. Furthermore, the sample cell types described herein are not intended to be limiting but were selected to evaluate the process's impact on viability of mammalian cells. Applications of the inventive approach go well beyond mammalian tissue/organ fabrication. […]
(§2) Cell viability in the printed thin slabs was quantified with Cell Counting Kit-8 (CCK-8, K1018, ApexBio). […] After incubation, 200 μL supernatant was collected from each sample and their OD at 450nm was measured with Tecan Infinite 200 pro.

The test system of series [2] is human Schwann cells (HSC). The series can be described thus: CCK8 metabolic activity of printed thin slabs, HSC in GMHA. The class given is cell-based. As to conditions: 35% vs 0% IDX; 2.5% GMHA, 0.5% GelMA, 10 million/mL HSC; 7 days culture; n=6, p>0.1.
Text: as §1, §2

The test system of another series is C2C12. The series can be described thus: CCK8 metabolic activity of printed thin slabs, C2C12 in AlgMA. It is filed as cell-based. As to conditions: 35% vs 0% IDX; 1% AlgMA, 0.25% GelMA, 10 million/mL C2C12; 7 days culture; n=6, p>0.1.
Text: as §1, §2

Series [3] has as its system HUVEC. The series is described as follows: Live/Dead staining of printed HUVEC thin slabs. It is filed as cell-based. As to conditions: HUVEC in GelMA thin slabs. From the text: (§3) The bioink used in HUVEC viability experiment (FIGS. 3A, 3D) consists of 5% GelMA, 0.6% LAP, 2 million/mL HUVEC cells, 0% or 35% IDX, and PBS as solvent. The bioink used in HSC viability experiment (FIG. 3B) consists of 2.5% GMHA, 0.5% GelMA, 0.6% LAP, 10 million/mL HSC cells, 0% or 35% IDX, and PBS as solvent. The bioink used in C2C12 viability experiment (FIG. 3C) consists of 1% AlgMA, 0.25% GelMA, 0.6% LAP, 10 million/mL C2C12 cells, 0% or 35% IDX, and PBS as solvent. The bioink used in HUVEC RNAseq experiment (FIG. 3G) consists of 5% GelMA, 0.6% LAP, 10 million/mL HUVEC cells, 0% or 35% IDX, and PBS as solvent.
(§4) In addition, live/dead staining was also used to characterize cell viability. HUVEC in GelMA bioink is printed as thin slabs with either 0% or 35% IDX. […] Furthermore, the cytoskeleton of HUVECs was stained using phalloidin to visualize the cells' morphology.
The cell viability was also evaluated with Live/Dead staining. At designated time points, the slabs were washed with DPBS twice, incubated with 2 μM Calcein AM (C3099, Invitrogen) and 3 μM propidium iodide (P3566, Invitrogen) in the fresh culture media at their regular incubation condition for 30 min. After incubation, the slabs were washed with DPBS twice and imaged with Leica DMI6000B fluorescence microscope. The live cell percentage was counted using particle analysis tool in ImageJ.

For series [4], the system named is HUVEC. The series can be described thus: Phalloidin cytoskeleton staining of printed HUVEC slabs. It is filed as cell-based, human. The note with it: 0% vs 35% IDX, day 7.
Text: as §4

In series [5] the test system is HUVEC. The series is described as follows: RNA-seq of HUVECs in 3D-printed GelMA hydrogel (DESeq2, GSEA). The class given is cell-based, human.
Text: as §3
This is especially important for vasculature-on-a-chip studies, where the metabolism and immune-regulation of the endothelium is of interest. […] Here, RNA-sequencing (RNA-seq) was performed to comprehensively investigate the potential changes caused by IDX exposure in the HUVECs in 3D-printed GelMA hydrogel.
Differential expression was first investigated with DESEQ2. […] To further evaluate the biological impact that IDX brought to the bioprinted vasculature, Gene Set Enrichment Analysis (GSEA) using the Molecular Signature Database (MSigDB) was used. […] The heme metabolism is believed to be a result of the oxidative stress induced by the IDX, and the enrichment in the complement system is potentially related to inflammatory responses. These findings correlate well with the clinically observed adverse effects and previous toxicological studies of IDX.
HUVECs were 3D printed in 250 μm slabs using GelMA bioink with 0% or 35% IDX. After 7 days of culture, the RNAs from the 3D printed slabs are extracted with TRIzol reagent (15596018, Ambion) followed by purification using spin column method with Direct-zol RNA Microprep (R2060, Zymo Research). The RNA quality evaluation and sequencing was performed by Novogen Inc. The sequencing data was analyzed with FastQC, trimmed with Trimmomatic, aligned with HISAT2, annotated with StringTie. Differential gene expression was analyzed with DESeq2. Gene set enrichment analysis was performed with GSEA_4.2.3 (Broad Institute). Network analysis was performed with Cytoscape 3.9.1 using the EnrichmentMap application.

Series [6] is described as follows: Refractive index measurement at 405 nm. It is filed as physicochemical. As for the experimental part: Tests verified that IDX can effectively tune the refractive index by measuring the refractive index of bioinks comprising 5% GelMA and various concentrations of IDX at the working wavelength of the bioprinter (405 nm). For refractive index measurement, mixtures of 5% GelMA with 0%, 20%, 25%, 30%, or 35% IDX, and PBS as solvent were prepared. […] The refractive indices of bioinks comprising 5% GelMA and 0% IDX, as well as the as-purchased IDX solution (OptiPrep™, Sigma-Aldrich) which contains 60% IDX, are also plotted for reference.
The refractive index of bioink can be measured using a simple refractometer with a 405 nm laser. […] The converging beam enters the prism-sample interface at different angles, and total internal reflection (TIR) happens at some of these angles. The diverging beam exits the prism, is collimated by a lens, and collected by a camera. […] In order to accurately relate the TIR boundary position on the captured image to the actual reflecting angle, water and isopropanol, whose refractive index and thus TIR critical angles are known, were used to calibrate this relation.

Series [7] is described as follows: Scattering properties of cell-laden bioink (Monte-Carlo with particle swarm optimization). The class given is physicochemical. As to the method:
The scattering effect of the material is usually characterized by scattering coefficient, anisotropy, and reduced scattering coefficient. To further verify that a proper concentration of IDX can effectively reduce the bioinks' scattering effect, bioinks comprising 5% GelMA, 40 million/mL 293T cells, and various IDX concentrations (0%, 20%, 25%, 30%, or 35%) were prepared. An approach that combined Monte-Carlo simulation and particle swarm optimization algorithm was used to determine the bioink's scattering properties at the working wavelength of the bioprinter (405 nm). […] The bioink without refractive index tuning has a scattering coefficient of 11.76 mm^−1, and a reduced scattering coefficient of 0.164 mm^−1. […] By carefully tuning the concentration of contrast agent, scattering can potentially be further reduced.
We used a well-developed 3D Monte-Carlo method combined with a particle swarm optimization algorithm (57) to numerically calculate the scattering properties of the cell-laden bioinks. The total transmittance and total reflectance at 405 nm of the 1 mm thick bioink containing 40 million/mL cells were measured using a UV-Vis-NIR spectroscope (Perkin Elmer, Lambda 1050) with integrating sphere. The angular intensity distribution of the scattered light at 405 nm was measured with a simple optical goniometer type setup. Given arbitrary optical properties, the total transmittance, total reflectance, and angular distribution can be calculated by the Monte-Carlo method. We then used a particle swarm optimization algorithm on MATLAB (MathWorks, Natick MA) to acquire the optical properties which best fit the measured total transmittance, total reflectance, and angular distribution. FIG. 2E provides sample line graphs showing that the simulated angular distribution of the scattered light well fits the measurement values. Next, we used the acquired scattering coefficient and anisotropy to simulate the spatial distribution of light inside the bioink with Monte-Carlo method. This spatial distribution is also the point spread function of scattering.

Series [8] in a line: Brix refractometer measurement of 5% GelMA bioink with contrast agents. The note with it: 5% GelMA bioink, 0, 20, 30, 40, 50% w/v contrast agent. The class given is physicochemical. As for the experimental part:
FIGS. 14A and 14B plot the results of measurement using a Brix refractometer of 5% GelMA bioink with various concentrations (0, 20, 30, 40, 50% w/v) of the contrast agents ioversol and iohexol, respectively. For comparison, a 100% (w/v) sample of each contrast agent was also measured. Since this method measures the number of dissolved solids in a liquid based on its specific gravity, the units are in Brix %. FIGS. 14C and 14D show the Brix % data converted to refractive index.

Setting [9] is: 35% vs 0% IDX, 7 days after bioprinting, |log2FoldChange|>0.5849, p<0.05.
The mark [10] stands for this setting: bioink 5% GelMA, 40 million/mL 293T cells, 30% IDX, 405 nm.

With `CC(=O)N(CC(O)CN(C(C)=O)c1c(I)c(C(=O)NCC(O)CO)c(I)c(C(=O)NCC(O)CO)c1I)c1c(I)c(C(=O)NCC(O)CO)c(I)c(C(=O)NCC(O)CO)c1I` (centres unmarked) [IDX, iodixanol], the “effect on cells' metabolic activity (CCK8) compared to controls” value (“effect … compared to controls” for short) in [1] was “no statistically significant effect”. In addition, the “effect … compared to controls” value in series [2] was “no statistically significant effect”. Further, the “effect … compared to controls” value with C2C12 is listed as “no statistically significant effect”. In addition, the “cell viability (live cell percentage)” value in the series with HUVEC [3] (0% or 35% IDX, Day 1, Day 3, Day 7) is reported as “greater than 90%”. Besides, the “difference in cell viability between 0% and 35% IDX” value with HUVEC [3] (n=4, p>0.1 for all pairs) is listed as “No statistically significant difference”. For the same compound, the “cell morphology / endothelialization” value with HUVEC [4] is “no qualitative differences observed”. In addition, in the series with HUVEC [5] (setting [9]), the genes downregulated came to 569 genes and the genes significantly upregulated is 587 genes. For the same compound, the “principal component analysis clustering of samples” value in the series on HUVEC [5] (35% vs 0% IDX, n=3) is “did not cluster into two groups”. Further, in the series with HUVEC [5] (response to IDX exposure), the “curated collection gene sets downregulated” value worked out at 11 gene sets, the “curated collection gene sets upregulated” value was 3 gene sets, the “ontology collection gene sets downregulated” value was 1 gene set and the “ontology collection gene sets upregulated” value stood at 18 gene sets. Also, the “hallmark gene sets significantly enriched (GSEA)” value with HUVEC [5] (samples printed with IDX bioink, FDR<25%, p<0.05) was “xenobiotic metabolism, heme metabolism, and complement gene sets”. In [6] (5% GelMA, IDX 20% to 35%, 405 nm), the “refractive index of the bioink versus IDX concentration” value is reported as “linearly increases”. Moreover, in series [6] (IDX solution), the refractive index result is recorded as “greater than 1.4”. In series [7] (30% IDX vs bioink without refractive index tuning), the reduction of scattering result is on record as “approximately 10 fold”. In series [7] (setting [10]), this compound came in with a reduced scattering coefficient of 0.014 mm^−1 and a scattering coefficient of 1.377 mm^−1.
On to `O=C(NCC(O)CO)c1c(I)c(C(=O)NCC(O)CO)c(I)c(N(CCO)C(=O)CO)c1I` (centres unmarked) [ioversol], for which the “tuning of bioink refractive index” value in series [8] was “can effectively tune its refractive index”.
